Measurements from patent US20240238361A1, “METHODS OF TREATING FIBROSIS AND HYPOXIA-ASSOCIATED DAMAGE TO PERIPHERAL NERVES” (Temple Therapeutics BV, priority 2021, published 2024).
Entries after “also recorded” stand apart in the source; their conditions may differ. Where a SMILES comes first, the peptide text is derived from it.

What was measured:
[1] = test system: hypoxic primary rat fibroblasts; assay: Alamar Blue viability / proliferation assay under hypoxia; assay type: cell-based; settings: for cell proliferation vs untreated controls: various concentrations
Method: In order to mimic the hypoxic micro-environment, primary rat fibroblasts were exposed to hypoxia. Cells were exposed to 2 separate conditions—continuous and episodic hypoxia. For continuous hypoxia, cells were incubated in a hypoxic chamber (2% 02) for 48 h and treated with or without L-alanyl-L-glutamine and no restoration to normoxia as shown in FIG. 1C. Cells were collected and processed for experiments subsequently. For episodic hypoxia, cells were incubated in a hypoxic chamber (2% 02) for 2 h followed by restoration to normoxia for 48 h at which time cells were treated with or without L-alanyl-L-glutamine, as shown by FIG. 1C. Cells were collected after 48 h and processed for experiments subsequently. Proliferation of primary fibroblasts were determined by alamar blue assay (Invitrogen). Briefly, cells were plated in a 96-well plate treated with or without L-alanyl-L-glutamine under aforementioned hypoxic conditions for 48 h. The interaction of alamar blue with the cells was analyzed for 4 h by measuring fluorescence readings at 540 nm and 585 nm respectively. Proliferation was also detected using flow cytometry based EdU assay using EdU-Click 488 (baseclick).

[2] = test system: hypoxic primary rat fibroblasts; assay: Western blotting of whole cell lysates for HIF1-α signaling and pro-fibrotic proteins; assay type: cell-based
Method: In order to mimic the hypoxic micro-environment, primary rat fibroblasts were exposed to hypoxia. Cells were exposed to 2 separate conditions—continuous and episodic hypoxia. For continuous hypoxia, cells were incubated in a hypoxic chamber (2% 02) for 48 h and treated with or without L-alanyl-L-glutamine and no restoration to normoxia as shown in FIG. 1C. Cells were collected and processed for experiments subsequently. For episodic hypoxia, cells were incubated in a hypoxic chamber (2% 02) for 2 h followed by restoration to normoxia for 48 h at which time cells were treated with or without L-alanyl-L-glutamine, as shown by FIG. 1C. Cells were collected after 48 h and processed for experiments subsequently. Protein samples were prepared by resuspending cells growing in 6-well plates in RIPA lysis and extraction buffer (Thermo) containing protease and phosphatase inhibitors (Roche). Protein concentrations were quantified using protein assay dye reagent (Bio-Rad). Samples were mixed with 4× LDS Sample buffer (Thermo) and denatured by boiling at 95° C. for 6 minutes. Following protein concentration estimations, equal protein samples containing 25 μg total protein were loaded and resolved in 4-15% Mini protean TGX gels (Bio-Rad). Fractionated proteins were transferred to 0.2 μm nitrocellulose membranes using Trans-Blot® Turbo™ Transfer System (Bio-Rad). Membranes were blocked with 5% Non-Fat dry milk and incubated overnight with primary antibodies. The following primary antibodies along with their respective concentrations were used during overnight incubation. Anti-collagen I (1:500; ab34710) and anti-collagen IV (1:500; ab6586) were purchased from Abcam. Anti-heat shock protein 47 (HSP-47) (1:400; sc-13150) and anti-fibronectin (1:500; sc-8422) were ordered from Santa Cruz Biotechnology. Other antibodies including anti-SMAD 2/3 (1:500; 85865S), anti-GAPDH (1:5000; 97166S) and anti-HIF-1α (1:750; 14179S) were from Cell Signaling Technology. Horseradish peroxidase-conjugated secondary antibodies at a concentration of 1:5000 were used for immunoreactivity and detection of protein bands were does using Pierce™ ECL Plus Western Blotting Substrate (Thermo) and on the ChemiDoc Imaging Systems (Bio-Rad).

[3] = test system: hypoxic primary rat fibroblasts; assay: Immunofluorescence of HIF1-α signaling and pro-fibrotic proteins; assay type: cell-based
Method: (§1) In order to mimic the hypoxic micro-environment, primary rat fibroblasts were exposed to hypoxia. Cells were exposed to 2 separate conditions—continuous and episodic hypoxia. For continuous hypoxia, cells were incubated in a hypoxic chamber (2% 02) for 48 h and treated with or without L-alanyl-L-glutamine and no restoration to normoxia as shown in FIG. 1C. Cells were collected and processed for experiments subsequently.
For episodic hypoxia, cells were incubated in a hypoxic chamber (2% 02) for 2 h followed by restoration to normoxia for 48 h at which time cells were treated with or without L-alanyl-L-glutamine, as shown by FIG. 1C. Cells were collected after 48 h and processed for experiments subsequently.
For immunofluorescence microscopy, cells were grown on 4-well chamber slides (IBIDI) under appropriate hypoxic conditions with or without L-alanyl-L-glutamine treatment. Cells were washed with ice-cold PBS followed by fixation with 4% paraformaldehyde. Fixed cells were permeabilized with 0.5% Triton X-100 and incubated with blocking reagent (1% BSA in PBS) for 30 minutes, prior to overnight incubation with appropriate primary antibodies. After wash steps, cultures were labeled and incubated with secondary antibodies and 4′-6-didiamino-2-phenylindole, dihydrochloride (DAPI, Sigma) were used to stain the nuclei.
Fluorescence microscopy image analysis was performed using NIKON Ti2 inverted microscope equipped with Photometrics Prime 95B camera for fluorescence imaging. All images were digitally processed, all quantifications and further arrangement for presentation was done using NIS-Elements Advanced Research analysis software. For quantification analysis, pictures from random fields in independent wells were taken at 10× and 40× magnification objectives and the total protein expression for each marker was determined in reference to the total number of cells based on DAPI quantification.
For immunofluorescence, the primary antibodies along with their respective concentrations are listed below. Anti-collagen I (1:500; ab34710), anti-collagen IV (1:500; ab6586) and anti-α-SMA (1:500; ab124964) were purchased from Abcam. Anti-HSP-47 (1:250; sc-13150), anti-fibronectin (1:250; sc-8422), and anti-HIF-1α (1:500; sc-13515) were ordered from Santa Cruz Biotechnology. Anti-SMAD 2/3 (1:500; 85865S) was purchased from Cell Signaling Technology. In addition to this, the following secondary antibodies: Goat anti-mouse Alexa Fluor (AF) 488 (A11029), goat anti-mouse AF546 (A11030), goat anti-rabbit AF488 (A11034) and goat anti-rabbit AF546 (A11010) from Life Technologies. DAPI (D9564) from Sigma was used at a concentration of 1:1000.

[4] = test system: hypoxic primary rat fibroblasts; assay: Phosphoproteomics (LC-MS/MS) and pathway analysis under chronic hypoxia; assay type: cell-based; settings: vs untreated chronic hypoxic samples
Method: as §1
Following fibroblast isolation from sciatic nerves of rats, (8E10 primary fibroblasts) were lysed in 80 ul of 8M Urea, 0.1M ammonium bicarbonate, phosphatase inhibitors (Sigma P5726&P0044) by sonication (Bioruptor, 10 cycles, 30 seconds on/off, Diagenode, Belgium) and proteins were digested as described previously (PMID:27345528). Shortly, proteins were reduced with 5 mM TCEP for 60 min at 37° C. and alkylated with 10 mM chloroacetamide for 30 min at 37° C. After diluting samples with 100 mM ammonium bicarbonate buffer to a final urea concentration of 1.6M, proteins were digested by incubation with sequencing-grade modified trypsin (1/50, w/w; Promega, Madison, Wisconsin) for 12 h at 37° C. After acidification using 5% TFA, peptides were desalted using C18 reverse-phase spin columns (Macrospin, Harvard Apparatus) according to the manufacturer's instructions, dried under vacuum and stored at −20° C. until further use. […]

[5] = room temperature; cited from earlier work
[6] = continuous hypoxia 48 h, 1 mM, 10 mM and 100 mM, dose-dependent
[7] = continuous hypoxia 48 h, various concentrations
[8] = episodic hypoxia 2 h, then treatment 48 h

Q: With `C[C@H](N)C(=O)N[C@@H](CCC(N)=O)C(=O)O` [L-alanyl-L-glutamine] (H-Ala-Gln-OH) as the compound, how does the “viability and cell proliferation” value ([1]; Alamar Blue, 48 h, hypoxic, 1 mM, 10 mM and 100 mM) read?
A: does not affect the viability and cell proliferation

Q: What about the “cell proliferation vs untreated controls” value ([1]; continuous (48 h) hypoxia) of the same compound?
A: no change in cell proliferation

Q: And the “cell proliferation vs untreated controls” value ([1]; episodic (2 h) hypoxia)?
A: no change in cell proliferation

Q: And the “HSP47 expression (western blot)” value ([2]; continuous hypoxia 48 h)?
A: reduces expression of HSP47 but we did not observe a significant downregulation

Q: And the “HIF1-α expression (western blot)” value ([2]; continuous hypoxia 48 h, 1 mM, 10 mM and 100 mM)?
A: significantly down regulated

Q: What about the “Collagen-I expression (western blot)” value [2, 6] of the same compound?
A: significantly reduced

Q: What about the “Collagen-IV expression (western blot)” value [2, 6] of the same compound?
A: significantly reduced

Q: What about the “Fibronectin expression (western blot)” value [2, 6] of the same compound?
A: significantly reduced

Q: What about the “SMAD 2/3 expression (western blot)” value ([2]; continuous hypoxia 48 h, 100 mM only) of the same compound?
A: significantly downregulated

Q: What about the “COL-IV expression (western blot)” value ([2]; episodic hypoxia, 1 mM) of the same compound?
A: significant downregulation

Q: And the “HIF1-α signaling factors and pro-fibrosis mechanistic targets (western blot)” value ([2]; episodic hypoxia, across the various concentrations)?
A: not any significant downregulation

Q: And the “Collagen-I expression (immunofluorescence)” value [3, 7]?
A: significantly reduced in a non-dose dependent manner

Q: What about the “Collagen-IV expression (immunofluorescence)” value [3, 7] of the same compound?
A: dose-dependent downregulation

Q: What about the “Fibronectin expression (immunofluorescence)” value [3, 7] of the same compound?
A: significantly reduced in a non-dose dependent manner

Q: What about the “HIF1-α expression (immunofluorescence)” value [3, 7] of the same compound?
A: significant reduction; also recorded: dose-dependent downregulation

Q: And the “HSP47 expression (immunofluorescence)” value [3, 7]?
A: dose-dependent downregulation

Q: And the “SMAD 2/3 expression (immunofluorescence)” value [3, 7]?
A: significant reduction; also recorded: dose-dependent downregulation

Q: And the “Collagen-I expression (immunofluorescence)” value [3, 8]?
A: significantly reduced at 1 mM L-alanyl-L-glutamine, but remained constant thereafter

Q: And the “Collagen-IV expression (immunofluorescence)” value [3, 8]?
A: effectively reduces expression

Q: What about the “Fibronectin expression (immunofluorescence)” value [3, 8] of the same compound?
A: effectively reduces expression

Q: And the “HIF1-α expression (immunofluorescence)” value [3, 8]?
A: significant downregulation

Q: What about the “HSP47 expression (immunofluorescence)” value [3, 8] of the same compound?
A: effectively reduces expression

Q: What about the “SMAD 2/3 expression (immunofluorescence)” value [3, 8] of the same compound?
A: significant downregulation

Q: And the “pro-fibrotic factors Fndel, Fndc3b, Col1a1, Akt1s1 and Pxn (phosphoproteome)” value [4]?
A: significantly downregulated

Q: For `NC(=O)CC[C@H](N)C(=O)O` [L-glutamine], which water solubility [5] is on record?
A: about 40 g/L
